Measurements as given in ChEMBL document CHEMBL5614374, “Novel carbazole-oxadiazole derivatives as anti-α-glucosidase and anti-α-amylase agents: Design, synthesis, molecular docking, and biological evaluation” (Eur J Med Chem, 2024).
Calls of active or inactive are those of the source. The rule behind the calls is not given here.

Experiments:
[1] = molecular target: T1, Alpha-glucosidase (Saccharomyces cerevisiae S288c, UniProt P53341+P38158+P07265); experiment: Inhibition of Saccharomyces cerevisiae alpha-glucosidase using p-nitrophenyl-alpha-D-glucopyranoside as substrate preincubated for 0.25 hrs followed by substrate addition and measured after 0.5 hrs by spectrophotometric analysis; type: protein assay
[2] = molecular target: T2, Alpha-amylase (Sus scrofa domesticus, UniProt Q7M328); experiment: Inhibition of hog pancreatic alpha-amylase using soluble starch as substrate preincubated for 10 mins followed by substrate addition and measured after 15 mins by absorbance based analysis
T2 sequence (Q7M328 whole entry): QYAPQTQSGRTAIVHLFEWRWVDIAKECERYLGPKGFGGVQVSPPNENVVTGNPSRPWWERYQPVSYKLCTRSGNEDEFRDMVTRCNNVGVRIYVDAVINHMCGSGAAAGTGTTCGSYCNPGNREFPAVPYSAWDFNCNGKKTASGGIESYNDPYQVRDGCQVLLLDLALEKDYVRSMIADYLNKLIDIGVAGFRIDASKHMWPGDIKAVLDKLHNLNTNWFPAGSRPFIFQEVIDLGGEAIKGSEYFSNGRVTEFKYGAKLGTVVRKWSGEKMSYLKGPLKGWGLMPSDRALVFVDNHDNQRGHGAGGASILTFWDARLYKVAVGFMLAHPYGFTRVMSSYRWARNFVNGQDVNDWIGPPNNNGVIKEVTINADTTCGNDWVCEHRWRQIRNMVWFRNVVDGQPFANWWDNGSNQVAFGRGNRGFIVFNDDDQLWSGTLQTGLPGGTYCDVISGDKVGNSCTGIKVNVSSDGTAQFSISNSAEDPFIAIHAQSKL

[3] = system: Mus musculus; experiment: Reduction in blood glucose concentration in male Kunming mouse at 20 mg/kg, IG preadministered for 40 mins followed by saccharose addition and measured after 30 mins by sucrose loading test; type: functional, organism-based; settings: time 70.0 min
[4] = system: Mus musculus; experiment: Reduction in blood glucose concentration in male Kunming mouse assessed as decrease in AUC at 20 mg/kg, IG preadministered for 40 mins followed by saccharose addition and measured after 150 mins by sucrose loading test relative to control; type: functional; set-up: scale not given: the % may be the effect or the level left; settings: time 190 min, 3.167 h
[5] = molecular target: T1, Alpha-glucosidase; experiment: Inhibition of Saccharomyces cerevisiae alpha-glucosidase using p-nitrophenyl-alpha-D-glucopyranoside as substrate assessed as inhibition constant of free alpha-glucosidase incubated for 7 mins by spectrophotometer based Lineweaver-Burk plot analysis; type: protein assay
[6] = molecular target: T3, Alpha-amylase (Sus scrofa domesticus) (UniProt Q7M328); experiment: Mixed-type inhibition of hog pancreatic alpha-amylase using soluble starch as substrate upto 35 uM preincubated for 10 mins followed by substrate addition and measured after 15 mins by Lineweaver-Burk plot analysis; settings: time 25.0 min
T3 sequence (whole entry): T2 sequence (Q7M328 whole entry)

[7] = molecular target: T2, Alpha-amylase; experiment: Inhibition of hog pancreatic alpha-amylase using soluble starch as substrate assessed as inhibition constant of free alpha-amylase preincubated for 10 mins followed by substrate addition and measured after 15 mins by Lineweaver-Burk plot analysis
[8] = molecular target: T2, Alpha-amylase; experiment: Inhibition of hog pancreatic alpha-amylase using soluble starch as substrate assessed as inhibition constant of enzyme-substrate complex preincubated for 10 mins followed by substrate addition and measured after 15 mins by Lineweaver-Burk plot analysis
[9] = molecular target: Alpha amylase (Homo sapiens) (UniProt P0DUB6); experiment: Inhibition of alpha-amylase (unknown origin) assessed as increase in enzyme particle size at 50 uM incubated for 30 mins by AFM imaging analysis; type: protein assay
[10] = molecular target: Alpha amylase (Homo sapiens) (UniProt P0DUB6); experiment: Inhibition of alpha-amylase (unknown origin) assessed as increase in enzyme particle thickness at 50 uM incubated for 30 mins by AFM imaging analysis; type: protein assay
[11] = Cytotoxicity against HEK293 cells assessed as cell viability at 60 uM incubated for 1 day by MTT assay relative to control; type: toxicity, cell-based; settings: human, read-out: Activity
[12] = Cytotoxicity against HEK293 cells incubated for 1 day by MTT assay; type: toxicity, cell-based; settings: human
[13] = molecular target: T4, Alpha-glucosidase (Saccharomyces cerevisiae S288c) (UniProt P53341+P38158+P07265); experiment: Mixed-type inhibition of Saccharomyces cerevisiae alpha-glucosidase using p-nitrophenyl-alpha-D-glucopyranoside as substrate assessed as decrease in Km and Vmax upto 20 uM incubated for 7 mins by spectrophotometer based Lineweaver-Burk plot analysis; type: protein assay
[14] = molecular target: T1, Alpha-glucosidase; experiment: Inhibition of Saccharomyces cerevisiae alpha-glucosidase using p-nitrophenyl-alpha-D-glucopyranoside as substrate assessed as inhibition constant of enzyme-substrate complex incubated for 7 mins by spectrophotometer based Lineweaver-Burk plot analysis; type: protein assay
[15] = molecular target: T4, Alpha-glucosidase (Saccharomyces cerevisiae S288c); experiment: Inhibition of alpha-glucosidase (unknown origin) assessed as effect on secondary structure by measuring reduction in alpha-helix content at 5 uM by CD spectra (reference value: 32.1 %); type: protein assay; set-up: scale not given: the % may be the effect or the level left; settings: Homo sapiens
[16] = molecular target: T4, Alpha-glucosidase (Saccharomyces cerevisiae S288c); experiment: Inhibition of alpha-glucosidase (unknown origin) assessed as effect on secondary structure by measuring reduction in alpha-helix content at 10 uM by CD spectra (reference value: 32.1 %); type: protein assay; set-up: scale not given: the % may be the effect or the level left; settings: Homo sapiens
[17] = molecular target: T4, Alpha-glucosidase (Saccharomyces cerevisiae S288c); experiment: Inhibition of alpha-glucosidase (unknown origin) assessed as effect on secondary structure by measuring reduction in alpha-helix content at 20 uM by CD spectra (reference value: 32.1 %); type: protein assay; set-up: scale not given: the % may be the effect or the level left; settings: Homo sapiens
[18] = molecular target: T4, Alpha-glucosidase (Saccharomyces cerevisiae S288c); experiment: Inhibition of alpha-glucosidase (unknown origin) assessed as effect on secondary structure by measuring reduction in alpha-helix content at 30 uM by CD spectra (reference value: 32.1 %); type: protein assay; set-up: scale not given: the % may be the effect or the level left; settings: Homo sapiens
[19] = molecular target: T4, Alpha-glucosidase (Saccharomyces cerevisiae S288c); experiment: Inhibition of alpha-glucosidase (unknown origin) assessed as effect on secondary structure by measuring beta-sheet content at 5 uM by CD spectra (reference value: 18.1 %); type: protein assay; set-up: scale not given: the % may be the effect or the level left
[20] = molecular target: T4, Alpha-glucosidase (Saccharomyces cerevisiae S288c); experiment: Inhibition of alpha-glucosidase (unknown origin) assessed as effect on secondary structure by measuring beta-sheet content at 10 uM by CD spectra (reference value: 18.1 %); type: protein assay; set-up: scale not given: the % may be the effect or the level left
[21] = molecular target: T4, Alpha-glucosidase (Saccharomyces cerevisiae S288c); experiment: Inhibition of alpha-glucosidase (unknown origin) assessed as effect on secondary structure by measuring beta-sheet content at 20 uM by CD spectra (reference value: 18.1 %); type: protein assay; set-up: scale not given: the % may be the effect or the level left
[22] = molecular target: T4, Alpha-glucosidase (Saccharomyces cerevisiae S288c); experiment: Inhibition of alpha-glucosidase (unknown origin) assessed as effect on secondary structure by measuring beta-sheet content at 30 uM by CD spectra (reference value: 18.1 %); type: protein assay; set-up: scale not given: the % may be the effect or the level left
[23] = molecular target: T4, Alpha-glucosidase (Saccharomyces cerevisiae S288c); experiment: Inhibition of alpha-glucosidase (unknown origin) assessed as effect on secondary structure by measuring beta-turn content at 5 uM by CD spectra (reference value: 17.1 %); type: protein assay; set-up: scale not given: the % may be the effect or the level left; settings: Homo sapiens
[24] = molecular target: T4, Alpha-glucosidase (Saccharomyces cerevisiae S288c); experiment: Inhibition of alpha-glucosidase (unknown origin) assessed as effect on secondary structure by measuring beta-turn content at 10 uM by CD spectra (reference value: 17.1 %); type: protein assay; set-up: scale not given: the % may be the effect or the level left
[25] = molecular target: T4, Alpha-glucosidase (Saccharomyces cerevisiae S288c); experiment: Inhibition of alpha-glucosidase (unknown origin) assessed as effect on secondary structure by measuring beta-turn content at 20 uM by CD spectra (reference value: 17.1 %); type: protein assay; set-up: scale not given: the % may be the effect or the level left
[26] = molecular target: T4, Alpha-glucosidase (Saccharomyces cerevisiae S288c); experiment: Inhibition of alpha-glucosidase (unknown origin) assessed as effect on secondary structure by measuring beta-turn content at 30 uM by CD spectra (reference value: 17.1 %); type: protein assay; set-up: scale not given: the % may be the effect or the level left
[27] = molecular target: T4, Alpha-glucosidase (Saccharomyces cerevisiae S288c); experiment: Inhibition of alpha-glucosidase (unknown origin) assessed as effect on secondary structure by measuring random coil content at 5 uM by CD spectra (reference value: 33.1 %); type: protein assay; set-up: scale not given: the % may be the effect or the level left; settings: Homo sapiens
[28] = molecular target: T4, Alpha-glucosidase (Saccharomyces cerevisiae S288c); experiment: Inhibition of alpha-glucosidase (unknown origin) assessed as effect on secondary structure by measuring random coil content at 10 uM by CD spectra (reference value: 33.1 %); type: protein assay; set-up: scale not given: the % may be the effect or the level left; settings: Homo sapiens
[29] = molecular target: T4, Alpha-glucosidase (Saccharomyces cerevisiae S288c); experiment: Inhibition of alpha-glucosidase (unknown origin) assessed as effect on secondary structure by measuring random coil content at 20 uM by CD spectra (reference value: 33.1 %); type: protein assay; set-up: scale not given: the % may be the effect or the level left
[30] = molecular target: T4, Alpha-glucosidase (Saccharomyces cerevisiae S288c); experiment: Inhibition of alpha-glucosidase (unknown origin) assessed as effect on secondary structure by measuring random coil content at 30 uM by CD spectra (reference value: 33.1 %); type: protein assay; set-up: scale not given: the % may be the effect or the level left; settings: Homo sapiens
[31] = molecular target: T4, Alpha-glucosidase (Saccharomyces cerevisiae S288c); experiment: Inhibition of alpha-glucosidase (unknown origin) assessed as increase in enzyme particle size at 1 uM incubated for 15 mins by AFM imaging analysis; type: protein assay
[32] = molecular target: T4, Alpha-glucosidase (Saccharomyces cerevisiae S288c); experiment: Inhibition of alpha-glucosidase (unknown origin) assessed as increase in enzyme particle thickness at 1 uM incubated for 15 mins by AFM imaging analysis; type: protein assay

Alpha amylase (Homo sapiens), sequence (P0DUB6 whole entry, looked up): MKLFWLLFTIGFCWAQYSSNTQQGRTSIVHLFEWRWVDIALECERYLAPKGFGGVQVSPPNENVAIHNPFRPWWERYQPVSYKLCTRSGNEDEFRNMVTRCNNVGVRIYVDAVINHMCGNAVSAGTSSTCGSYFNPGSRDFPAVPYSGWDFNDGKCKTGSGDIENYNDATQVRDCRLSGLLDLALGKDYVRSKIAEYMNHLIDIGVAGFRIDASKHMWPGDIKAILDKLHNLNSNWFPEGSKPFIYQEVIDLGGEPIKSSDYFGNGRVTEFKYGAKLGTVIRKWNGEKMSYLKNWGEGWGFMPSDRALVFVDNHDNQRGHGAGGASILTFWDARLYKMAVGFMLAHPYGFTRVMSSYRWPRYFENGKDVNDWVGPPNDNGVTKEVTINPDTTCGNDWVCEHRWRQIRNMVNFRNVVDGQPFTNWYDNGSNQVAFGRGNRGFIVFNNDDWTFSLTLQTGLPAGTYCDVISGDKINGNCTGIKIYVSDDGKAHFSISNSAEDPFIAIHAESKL

O=C(CSc1nnc(CCn2c3ccccc3c3ccccc32)o1)Nc1ccc(Cl)cc1[N+](=O)[O-]
IC50 [1]: 37.96 µM
IC50 [2]: 89.7 µM

O=C(CSc1nnc(CCn2c3ccccc3c3ccccc32)o1)Nc1ccc(Oc2ccccc2)cc1
IC50 [1]: 39.52 µM
IC50 [2]: 74.8 µM

C[C@H]1O[C@H](O[C@H]2[C@H](O)[C@@H](O)[C@@H](O[C@H]3[C@H](O)[C@@H](O)C(O)O[C@@H]3CO)O[C@@H]2CO)[C@H](O)[C@@H](O)[C@@H]1N[C@H]1C=C(CO)[C@@H](O)[C@H](O)[C@H]1O (some centres undefined) [ACARBOSE]
Activity [3]: Active
Activity [4]: 28.57%

O=C(CSc1nnc(CCn2c3ccccc3c3ccccc32)o1)Nc1ccc(Cl)cc1Cl
IC50 [1]: 92.05 µM
IC50 [2]: 94.3 µM

O=C(CSc1nnc(CCn2c3ccccc3c3ccccc32)o1)Nc1ccc(Cl)cc1
IC50 [1]: 22.07 µM
IC50 [2]: 83.2 µM

Cc1ccccc1NC(=O)CSc1nnc(CCn2c3ccccc3c3ccccc32)o1
IC50 [1]: > 300 µM
IC50 [2]: > 200 µM

Cc1ccc(NC(=O)CSc2nnc(CCn3c4ccccc4c4ccccc43)o2)cc1
IC50 [1]: 80.64 µM
IC50 [2]: 126 µM

COc1ccc(NC(=O)CSc2nnc(CCn3c4ccccc4c4ccccc43)o2)c([N+](=O)[O-])c1
IC50 [1]: 85.95 µM
IC50 [2]: 64.6 µM

O=C(CSc1nnc(CCn2c3ccccc3c3ccccc32)o1)Nc1ccc(F)cc1
IC50 [1]: 27.73 µM
IC50 [2]: 45.5 µM
Ki [5]: 22.04 µM
inhibition [6]: Active
Ki [7]: 45.1 µM
Ki [8]: 63.3 µM
inhibition [9]: Active
inhibition [10]: Active
viability at 24 h, 60 µM [11]: 90.3%
IC50 at 1 day [12]: 181 µM
Activity [3]: Active
Activity [4]: 10.66%

O=C(CSc1nnc(CCn2c3ccccc3c3ccccc32)o1)Nc1ccc([N+](=O)[O-])cc1
IC50 [1]: 22.22 µM
IC50 [2]: 86.3 µM

O=C(CSc1nnc(CCn2c3ccccc3c3ccccc32)o1)Nc1ccccc1
IC50 [1]: 43.26 µM
IC50 [2]: 56.2 µM

CCOc1ccc(NC(=O)CSc2nnc(CCn3c4ccccc4c4ccccc43)o2)cc1
IC50 [1]: 21.39 µM
IC50 [2]: 61.5 µM
inhibition [13]: Active
Ki [14]: 13.19 µM
Activity [15]: 28.9%
Activity [16]: 28.5%
Activity [17]: 25.7%
Activity [18]: 25.1%
Activity [19]: 20%
Activity [20]: 20.3%
Activity [21]: 22.4%
Activity [22]: 22.9%
Activity [23]: 17.7%
Activity [24]: 17.8%
Activity [25]: 18.4%
Activity [26]: 18.5%
Activity [27]: 35.3%
Activity [28]: 36.1%
Activity [29]: 38.1%
Activity [30]: 38.8%
inhibition [31]: Active
inhibition [32]: Active
viability at 24 h, 60 µM [11]: 96.1%
IC50 at 1 day [12]: 193 µM
Activity [3]: Active
Activity [4]: 11.74%

Cc1ccc(NC(=O)CSc2nnc(CCn3c4ccccc4c4ccccc43)o2)c(C)c1
IC50 [1]: > 300 µM
IC50 [2]: 120 µM

Cc1ccc(NC(=O)CSc2nnc(CCn3c4ccccc4c4ccccc43)o2)c([N+](=O)[O-])c1
IC50 [1]: 67.35 µM
IC50 [2]: 54.6 µM

Cc1cccc(NC(=O)CSc2nnc(CCn3c4ccccc4c4ccccc43)o2)c1
IC50 [1]: 66.89 µM
IC50 [2]: 81.2 µM
